According to patent US20240285634A1, “COMPOUND AND METHOD FOR TREATING CHEMOTHERAPY-ASSOCIATED GASTROINTESTINAL SIDE EFFECTS” (ONQUALITY PHARMACEUTICALS CHINA LTD., priority 2021, published 2024):

Test system: Chemotherapeutic agent-caused diarrhea models of Balb/c mice
Assay: Relieving effect on diarrhea caused by a chemotherapeutic agent (Examples 1-201)
Assay type: in vivo
Description: Construction of mouse animal models: Chemotherapeutic agent-caused diarrhea models of Balb/c mice were constructed according to the administration mode and frequency of the chemotherapeutic agent as shown in Table 3. After administration for several days, mice developed different extents of diarrhea symptoms (as shown in FIG. 1), which were similar to the conditions in human. Thus, chemotherapeutic agent-caused diarrhea models of mice are very good models to mimic diarrhea in human caused by the chemotherapeutic agent.
Balb/c mice were fed for 1 week, and then divided into groups. The experiment was divided into a control group, a chemotherapeutic agent group, and a group of the compound as shown in Formula I, each of which comprised 10 mice, to perform the administration experiment, for which the administration dosage, mode, time and frequency were shown in Table 3. The control group: being injected or intragastrically administered with the same solvent as that used in the group of the compound as shown in Formula I (the injection mode and time were shown in Table 3), and then being injected or intragastrically administered with the same solvent as that used in the chemotherapeutic agent group (the administration mode was shown in Table 3); the chemotherapeutic agent group: being injected or intragastrically administered with the same solvent as that used in the group of the compound as shown in Formula I (the administration mode and time were shown in Table 3), and then being injected or intragastrically administered with the chemotherapeutic agent (the type, administration mode and dosage were shown in Table 3); the group of the compound as shown in Formula I: being injected or intragastrically administered with the compound as shown in Formula I (the administration mode and time were shown in Table 3), and then being administered with the chemotherapeutic agent (the administration mode and dosage were shown in Table 3).
The scoring of diarrhea can refer to the method of Akinobu Kurita (Cancer Chemother Pharmacol 2000; 46:211-20.), Grade 0: normal feces; Grade 1: mild diarrhea, the stools is slightly wet and soft; Grade 2: moderate diarrhea, loose stools and mild perianal contamination; Grade 3: severe diarrhea, watery stools and accompanied by severe perianal staining (see FIG. 1). It is regarded as effective remission when the diarrhea grading of mice in the group of the compound as shown in Formula I is reduced compared with the average diarrhea grading of mice in the chemotherapeutic agent group.
The diarrhea grading of mice was observed and recorded every day. At the end of the experiment, the number of mice in the group of the compound as shown in Formula I whose diarrhea grading was lower than that of mice in the chemotherapeutic agent group was recorded. Table 3 lists various animal experiment combinations of chemotherapeutic agents and the compound as shown in Formula I, as well as the corresponding experimental results. (Relative remission rate %=the number of mice in the group of the compound as shown in Formula I whose diarrhea has been effectively relieved/the total number of mice in the group of the compound as shown in Formula I*100%. The establishment rate of diarrhea model in the chemotherapeutic agent group was 50%-70%, that is, about 5-7 of 10 mice developed diarrhea during the experiment, and there were cases of individual mice death or not developing diarrhea.)

## CN1CCN(c2ccc(Nc3ncc4cc5n(c4n3)C3(CCCCC3)CNC5=O)nc2)CC1 [Compound I, Trilaciclib]
Ex 131, Fluorouracil 100 + irinotecan 200 mg/kg intraperitoneal single, compound 150 mg/kg oral single 24 h before, cycle 8 days
  Relative remission rate: 30%
Ex 138, Fluorouracil 50 + oxaliplatin 5 + irinotecan 50 mg/kg intraperitoneal single, compound 100 mg/kg intraperitoneal single 0.5 h before, cycle 10 days
  Relative remission rate: 50%
Ex 139, Fluorouracil 50 + oxaliplatin 5 + irinotecan 50 mg/kg intraperitoneal single, compound 100 mg/kg intraperitoneal single 4 h before, cycle 10 days
  Relative remission rate: 40%
Ex 140, Fluorouracil 50 + oxaliplatin 5 + irinotecan 50 mg/kg intraperitoneal single, compound 100 mg/kg intraperitoneal single 8 h before, cycle 10 days
  Relative remission rate: 40%
Ex 141, Fluorouracil 50 + oxaliplatin 5 + irinotecan 50 mg/kg intraperitoneal single, compound 100 mg/kg intraperitoneal single 12 h before, cycle 10 days
  Relative remission rate: 50%
Ex 142, Fluorouracil 50 + oxaliplatin 5 + irinotecan 50 mg/kg intraperitoneal single, compound 100 mg/kg intraperitoneal single 24 h before, cycle 10 days
  Relative remission rate: 50%
Ex 143, Fluorouracil 50 + oxaliplatin 5 + irinotecan 50 mg/kg intraperitoneal single, compound 100 mg/kg intraperitoneal single 48 h before, cycle 10 days
  Relative remission rate: 0%
Ex 144, Fluorouracil 50 + oxaliplatin 5 + irinotecan 50 + tetrahydrofolic acid 90 mg/kg intravenous single, compound 100 mg/kg intravenous single 0.5 h before, cycle 10 days
  Relative remission rate: 50%
Ex 145, Fluorouracil 50 + oxaliplatin 5 + irinotecan 50 + tetrahydrofolic acid 90 mg/kg intravenous single, compound 100 mg/kg intravenous single 1 h before, cycle 10 days
  Relative remission rate: 40%
Ex 146, Fluorouracil 50 + oxaliplatin 5 + irinotecan 50 + tetrahydrofolic acid 90 mg/kg intravenous single, compound 100 mg/kg intravenous single 2 h before, cycle 10 days
  Relative remission rate: 40%
Ex 147, Fluorouracil 50 + oxaliplatin 5 + irinotecan 50 + tetrahydrofolic acid 90 mg/kg intravenous single, compound 100 mg/kg intravenous single 3 h before, cycle 10 days
  Relative remission rate: 30%
Ex 148, Fluorouracil 50 + oxaliplatin 5 + irinotecan 50 + tetrahydrofolic acid 90 mg/kg intravenous single, compound 100 mg/kg intravenous single 4 h before, cycle 10 days
  Relative remission rate: 40%
Ex 149, Fluorouracil 50 + oxaliplatin 5 + irinotecan 50 + tetrahydrofolic acid 90 mg/kg intravenous single, compound 100 mg/kg intravenous single 6 h before, cycle 10 days
  Relative remission rate: 40%
Ex 150, Fluorouracil 50 + oxaliplatin 5 + irinotecan 50 + tetrahydrofolic acid 90 mg/kg intravenous single, compound 100 mg/kg intravenous single 8 h before, cycle 10 days
  Relative remission rate: 30%
Ex 151, Fluorouracil 50 + oxaliplatin 5 + irinotecan 50 + tetrahydrofolic acid 90 mg/kg intravenous single, compound 100 mg/kg intravenous single 10 h before, cycle 10 days
  Relative remission rate: 30%
Ex 152, Fluorouracil 50 + oxaliplatin 5 + irinotecan 50 + tetrahydrofolic acid 90 mg/kg intravenous single, compound 100 mg/kg intravenous single 12 h before, cycle 10 days
  Relative remission rate: 30%
Ex 153, Fluorouracil 50 + oxaliplatin 5 + irinotecan 50 + tetrahydrofolic acid 90 mg/kg intravenous single, compound 100 mg/kg intravenous single 14 h before, cycle 10 days
  Relative remission rate: 50%
Ex 154, Fluorouracil 50 + oxaliplatin 5 + irinotecan 50 + tetrahydrofolic acid 90 mg/kg intravenous single, compound 100 mg/kg intravenous single 16 h before, cycle 10 days
  Relative remission rate: 50%
Ex 155, Fluorouracil 50 + oxaliplatin 5 + irinotecan 50 + tetrahydrofolic acid 90 mg/kg intravenous single, compound 100 mg/kg intravenous single 18 h before, cycle 10 days
  Relative remission rate: 60%
Ex 156, Fluorouracil 50 + oxaliplatin 5 + irinotecan 50 + tetrahydrofolic acid 90 mg/kg intravenous single, compound 100 mg/kg intravenous single 20 h before, cycle 10 days
  Relative remission rate: 60%
Ex 157, Fluorouracil 50 + oxaliplatin 5 + irinotecan 50 + tetrahydrofolic acid 90 mg/kg intravenous single, compound 100 mg/kg intravenous single 24 h before, cycle 10 days
  Relative remission rate: 30%
Ex 158, Fluorouracil 50 + oxaliplatin 5 + irinotecan 50 + tetrahydrofolic acid 90 mg/kg intravenous single, compound 100 mg/kg intravenous single 48 h before, cycle 10 days
  Relative remission rate: 0%
Ex 159, Fluorouracil 50 + oxaliplatin 5 + irinotecan 50 + tetrahydrofolic acid 90 mg/kg intraperitoneal single, compound 100 mg/kg intraperitoneal single 0.5 h before, cycle 7 days
  Relative remission rate: 50%
Ex 160, Fluorouracil 50 + oxaliplatin 5 + irinotecan 50 + tetrahydrofolic acid 90 mg/kg intraperitoneal single, compound 100 mg/kg intraperitoneal single 24 h before, cycle 7 days
  Relative remission rate: 20%
Ex 163, Fluorouracil 50 + oxaliplatin 5 + irinotecan 50 + tetrahydrofolic acid 90 mg/kg intraperitoneal single, compound 150 mg/kg oral single 0.5 h before, cycle 7 days
  Relative remission rate: 40%
Ex 164, Fluorouracil 50 + oxaliplatin 5 + irinotecan 50 + tetrahydrofolic acid 90 mg/kg intraperitoneal single, compound 150 mg/kg oral single 4 h before, cycle 7 days
  Relative remission rate: 60%
Ex 165, Fluorouracil 50 + oxaliplatin 5 + irinotecan 50 + tetrahydrofolic acid 90 mg/kg intraperitoneal single, compound 150 mg/kg oral single 8 h before, cycle 7 days
  Relative remission rate: 80%
